Laboratory results published in patent US6828294B2, “High retention sanitizer systems” (FMC Corporation, priority 2001, dated 2004).

How the values were obtained:
[1] = Stability of PAA in compositions and in presence of chelators (PAA test strips); details: for PAA present immediately after preparation of the solution / time after which no PAA was detectable: chelator plus 0.170 g of 5% PAA in 100 g DI water, PAA test strips
Protocol: A sanitizer composition containing 0.25% SLS, 0.05% LA, 0.125% magnesium sulfate, and 85 ppm PAA was prepared in the 300 ppm total hardness water described in Example 8. This solution was applied to a stainless steel cabinet (34.5 in.×72 in.) in the meat pilot plant with a FOAM-IT® 5 unit using the driest foam setting.
This Example illustrates the effect of chelating agent on sanitizer compositions. The amount of chelator added is intended to chelate a concentration of ions corresponding to 300 ppm hard water, which corresponds to 3 millimolar. Because water will often have a hardness of less than 300 ppm, leaving an excess of chelator, it is important to evaluate the stability of PAA with respect to the chelator. The excess chelator could cause increases in pH, which would decrease the amount of PAA present according to the reaction (Preparation, Properties, Reactions and Uses of Organic Peracids and their Salts, FMC Corporation, Inorganic Chemicals Division, New York, N.Y., 1964, p. 34):
Therefore, in anticipation of the worst case where soft water is used to prepare the solution from which the foam is generated, the stability of PAA in the presence of at least 3 millimolar of chelator was evaluated.
0.125 g of Na4EDTA and 0.170 g of 5% PAA were added to 100 g of DI water.
0.161 g of Na3EDTA and 0.170 g of 5% PAA were added to 100 g of DI water.
0.233 g of Na2EDTA and 0.170 g of 5% PAA were added to 100 g of DI water.

pH of solutions = format: physicochemical; details: chelator solutions in DI water in the absence of PAA, pH test paper
[2] = Turbidity of lauryl sulfate solutions in hard water (Example 8); format: physicochemical
Protocol: When a 0.25% MLS solution was prepared in water containing 333 ppm of calcium chloride, the solution became turbid after about 2 min.
Hard water contains both magnesium and calcium ions. For a 300 ppm total hardness (expressed as calcium carbonate), there is about 200 ppm hardness as calcium and 100 ppm hardness as magnesium (AOAC Official Methods of Analysis, 1995, Chapter 6, p. 10). […] When 0.25% solution of MLS was prepared in 300 ppm total hardness water containing calcium and magnesium ions in this ratio, the solution became turbid after about 5 minutes.

[3] = 0.25% solution in 300 ppm total hardness water containing calcium and magnesium ions
[4] = 0.25% solution in water containing 333 ppm of calcium chloride

Row | Molecule | PAA present immediately after preparation of the solution [1] | pH (pH of solutions) | stability of PAA in the presence of the chelator [1] | further results
1 | O=C([O-])CN(CCN(CC(=O)[O-])CC(=O)O)CC(=O)O.[Na+].[Na+] [Na2EDTA] | at least 50 ppm | 4 |  | time after which no PAA was detectable [1]: ~10 min
2 | O=C([O-])CN(CCN(CC(=O)[O-])CC(=O)[O-])CCN(CC(=O)[O-])CC(=O)[O-].[Na+].[Na+].[Na+].[Na+].[Na+] [pentasodium salt of diethylenetriaminepentaacetic acid] |  |  | not found any chelator in salt form in which PAA is stable | 
3 | O=P([O-])(O)CN(CCN(CCN(CP(=O)(O)O)CP(=O)(O)O)CP(=O)(O)O)CP(=O)(O)O.[Na+] [DEQUEST 2066] |  |  | not found any chelator in salt form in which PAA is stable | 
4 | O=C([O-])CN(CCN(CC(=O)[O-])CC(=O)[O-])CC(=O)[O-].[Na+].[Na+].[Na+].[Na+] [Na4EDTA] | no PAA present | 10 |  | 
5 | O=C([O-])CN(CCN(CC(=O)[O-])CC(=O)O)CC(=O)[O-].[Na+].[Na+].[Na+] [Na3EDTA] | at least 50 ppm | 7.5 |  | time after which no PAA was detectable [1]: ~5 min
6 | CC(O)(P(=O)(O)O)P(=O)(O)O [DEQUEST® 2010, 1-hydroxyethylidene-1,1-diphosphonic acid] |  |  | stable | 
7 | sodium salts of diethylene triamine pentaacetic acid |  |  | rapidly decomposes | 
8 | Magnesium lauryl sulfate [MLS] |  |  |  | time until solution became turbid [2, 3]: about 5 minutes; time until solution became turbid [2, 4]: about 2 min
9 | CCCCCCCCCCCCOS(=O)(=O)[O-].[Na+] [SLS, Sodium lauryl sulfate] |  |  |  | time until solution became turbid [2, 3]: immediately became turbid; time until solution became turbid [2, 4]: instantly became turbid
